Source: patent publication US6509348B1, “Combination of an ADP-receptor blocking antiplatelet drug and a thromboxane A2 receptor antagonist and a method for inhibiting thrombus formation employing such combination” (Bristol-Myers Squibb Company, priority 1998, dated 2003)
“Also recorded” adds a separate entry of the source. Where two headings read alike, the source gives them in different places.

Tests used:
[1] = system: vessel injury-induced venous thrombosis; details: cited from earlier work; for activity in vessel injury-induced venous thrombosis model: aspirin, previous experiments
[2] = system: stasis-induced vena cava thrombosis; details: cited from earlier work
[3] = system: vessel injury-induced venous thrombosis; assay: FeCl2 vessel injury-induced vena cava thrombosis in rats; assay type: in vivo, rat
Protocol: Thrombosis Procedure. Male Sprague Dawley rats (350-450 g) were anesthetized with sodium pentobarbital (50 mg/kg i.p.). A jugular vein was cannulated for drug infusion or anesthetic supplementation, and the trachea was intubated to ensure airway patency. The vena cava was isolated by a midline abdominal incision and cleared of connective tissue. A fiberoptic probe (model P-433-10, 0.8 mm tip diameter) was placed on the dorsal surface of the vena cava distal to the renal veins and attached to a laser doppler blood perfusion monitor (model BPM 430-2, Vasamedics, St. Paul, Minn.). When baseline flow had stabilized, a 2 mm×5 mm strip of filter paper was saturated in 15% FeCl2 and placed on the vena cava downstream from the flow probe for 1 min. The vena cava was dissected free 60 min after filter paper application and opened lengthwise. The thrombus was removed to determine wet and dry thrombus weights on a Sartorius R-160P balance (Brinkmann Instruments Inc., Westbury, N.Y.). Blood flow was monitored on an R-611 physiological recorder (Sensor Medics, Anaheim, Calif.). Total blood flow was calculated by planimetry and normalized as percent of baseline flow (0 min=100%) over 60 min.
(§1) Drug treatments. There were 3 separate studies. In the first study rats were dosed once daily for 3 days with an oral gavage of either saline (n=6) or clopidogrel 3 (n=5), 10 (n=5), 20 (n=4) mg/kg). One hour after the last dose, rats were anethetized for the thrombosis protocol or blood was obtained for ex vivo testing of platelet function and whole blood coagulation. In the second study a continuous i.v. infusion of either saline or ifetroban (150 μg/kg/min) was administered starting 15 min before FeCl2-induced injury of the vena cava. In the third study, rats were treated with saline or clopidogrel (2 mg/kg per day for 3 days) and administered either saline or ifetroban (150 μg/kg/min) starting 15 min before FeCl2 application.

[4] = system: ADP-induced platelet aggregation; assay: animal or person
Protocol: (§2) Ex Vivo Platelet Function and Coagulation Testing. Male Sprague Dawley rats (350-450 g) were anesthetized with sodium pentobarbital (50 mg/kg i.p.) The vena cava was isolated by a midline abdominal incision and 5 to 8 ml of blood was withdrawn into a 1/10th volume of 3.8% Na citrate. A portion of each blood sample was centrifuged for 3 sec in a Microcentrifuge E (Beckman, Palo Alto, Calif., USA) to prepare platelet rich plasma (PRP) and for 3 min to prepare platelet poor plasma (PPP). The PRP was adjusted to a count of ˜450×10^3 platelets per […] by adding PPP.
Platelet aggregation responses of PRP to ADP (1,3 and 10 μM; Chrono-Log Corp., Havertown, Pa., USA) were determined using the photometric technique described for a model 540 aggregometer (Chrono-Log Corp.).
as §1

whole blood coagulation = details: clopidogrel orally once daily for 3 days
Protocol: as §2, §1

[5] = system: stasis-induced vena cava thrombosis; assay: Stasis-induced (uncomplicated) vena cava thrombosis; assay type: in vivo, rat
[6] = system: carotid artery thrombosis; details: clopidogrel 10 mg/kg
[7] = target: T1, rat platelet thromboxane A2 receptors (Rattus norvegicus, UniProt P34978); details: dose used (150 μg/kg/min); Schumacher et al. 1993; cited from earlier work
T1 construct: rat platelet thromboxane A2 receptors; host or cells: rat platelets (endogenous)
T1 sequence (P34978 1-341): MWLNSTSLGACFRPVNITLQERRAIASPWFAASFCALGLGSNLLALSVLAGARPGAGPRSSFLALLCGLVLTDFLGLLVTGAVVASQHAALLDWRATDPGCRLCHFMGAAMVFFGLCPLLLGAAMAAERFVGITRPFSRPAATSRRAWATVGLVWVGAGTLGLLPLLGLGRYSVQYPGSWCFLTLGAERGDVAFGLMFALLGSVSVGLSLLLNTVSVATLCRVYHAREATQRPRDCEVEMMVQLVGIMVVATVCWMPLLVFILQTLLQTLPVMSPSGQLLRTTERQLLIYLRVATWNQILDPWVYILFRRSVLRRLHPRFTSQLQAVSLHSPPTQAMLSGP

CC(=O)Oc1ccccc1C(=O)O [aspirin]
activity in vessel injury-induced venous thrombosis model [1]: failure; also recorded: failed to inhibit thrombosis | activity in vessel injury-induced venous thrombosis model ([1]; listed as Aspirin): inactive | activity in uncomplicated venous thrombosis model ([2]; aspirin): inactive

COC(=O)[C@H](c1ccccc1Cl)N1CCc2sccc2C1 [clopidogrel, methyl (4)-(S)-α-(o-chlorophenyl)-6,7-dihydrothieno[3,2-c]pyridine-5-acetate]
effect on thrombus formation ([3]; clopidogrel 2 mg/kg per day for 3 days): not sufficient to inhibit thrombus formation; also recorded: no effect | decrease in thrombus weight ([3]; clopidogrel 3 mg/kg orally once daily for 3 days): 46% | antithrombotic activity ([3]; clopidogrel 10 mg/kg): good activity | decrease in thrombus weight ([3]; clopidogrel 10 mg/kg orally once daily for 3 days): 72% | decrease in thrombus weight ([3]; clopidogrel 20 mg/kg orally once daily for 3 days): 84% | inhibition at 20 mg/kg ([4]; Rattus norvegicus, Platelet, 72 h, read-out: inhibition of ADP-induced aggregation): 86% | inhibition at 10 mg/kg ([4]; Rattus norvegicus, Platelet, 72 h, read-out: inhibition of ex vivo platelet aggregation): 50% | platelet shape change response to ADP ([4]; clopidogrel 20 mg/kg daily for 3 days): unaffected | ex vivo whole blood coagulation tests (whole blood coagulation): unaffected | antithrombotic activity ([5]; clopidogrel 10 mg/kg): good activity | antithrombotic efficacy compared across the thrombosis models ([5]; dose-dependent comparison of three rat models): least effective | antithrombotic activity [6]: good activity

CCCCCNC(=O)c1coc(C2C3CCC(O3)C2Cc2ccccc2CCC(=O)O)n1 (stereo not drawn) [ifetroban, [1S-(1α,2α,3α,4α)]-2-[[3-[4-[(pentylamino)carbonyl]-2-oxazolyl]-7-oxabicyclo[2.2.1]hept-2-yl]methyl]benzenepropanoic acid]
effect on thrombus formation ([3]; ifetroban alone, 150 μg/kg/min i.v. infusion from 15 min before FeCl2): inactive; also recorded: no significant effect; also recorded: failure; also recorded: not effective | effect on thrombus formation ([3]; ifetroban alone, 150 μg/kg/min i.v. infusion from 15 min before FeCl2, listed as Ifetroban): failed to inhibit thrombosis | efficacy in uncomplicated venous thrombosis model ([5]; ifetroban alone): effective; also recorded: intermediate efficacy | block of rat platelet thromboxane A2 receptors [7]: ≥ 99%

CC(=O)CC(c1ccccc1)c1c(O)c2ccccc2oc1=O (stereo not drawn) [warfarin]
INR ([1]; at higher dose needed for comparable inhibition of vessel injury-induced venous thrombosis): 9.5 | PT ratio (INR) ([2]; at dose giving ≧75% inhibition of stasis-induced thrombosis): 2.2
